Assay results from patent publication US9157062B2, “Compositions and methods for promoting the generation of PDX1+ pancreatic cells” (President and Fellows of Harvard College, priority 2008, dated 2015).

Experiments:
Format in all cases: cell-based, human
[1] = tested on: HUES8-derived definitive endoderm population; experiment: Pancreatic specification of the hESC-derived definitive endoderm population (Pdx1+ cells); conditions: definitive endoderm population with 70% Sox17+ cells, 4 days; 300 nM ILV, 50 ng/ml FGF10
Procedure: FIG. 6c are results showing that ILV directs the specification of definitive endoderm population toward pancreatic lineage (definitive endoderm population was derived from HUES8 after 1 day treatment with 25 ng/ml Wnt3a and 100 ng/ml Activin A for 1 day and 100 ng/ml Activin A for additional 2 days; then, the definitive endoderm population was treated with 300 nM ILV or 300 nM ILV+50 ng/ml FGF10 for additional 4 days);
Secondly, ILV was examined on the definitive endoderm population containing 70% Sox17^+ cells derived from HUES8 by Wnt3a/Activin treatment (D'Amour et al., 2006). […] Thus, ILV functions by inducing pancreatic specification of hESC-derived definitive endoderm population.

[2] = tested on: HUES9-derived population (Pdx1+ cells); experiment: High throughput screen for compounds increasing Pdx1+ cells
Procedure: (§1) To generate a starting population, HUES cells were cultured on MEF feeder cells until 80-90% confluent, then treated with 25 ng/ml Wnt3a (R&D systems)+100 ng/ml Activin A (R&D systems) in advanced RPMI (A-RPMI, Invitrogen) supplemented with 1×L-Glu and 1×PS for 1 day, and then 100 ng/ml Activin A in A-RPMI supplemented with 1×L-Glu, 1×PS and 0.2% FBS (Invitrogen). Two days later, the media was changed to 50 ng/ml FGF10 (R&D systems)+0.25 μM KAAD-CYC (Calbiochem) in A-RPMI supplemented with 1×L-Glu, 1×PS and 2% FBS and maintained for additional 2 days. Cells were then transferred to 50 ng/ml FGF10+0.25 μM KAAD-CYC+2 μM RA (Sigma) in DMEM supplemented with 1×L-Glu, 1×PS, 1×B27 (Invitrogen) and cultured for an additional 4 days. ILV was obtained from Axxora, KAAD-CYC, TPB, PMA, BISI, Gö 6983, U0126 and PD98059 were obtained from Calbiochem and RA were obtained from Sigma.
For a high throughput screen, the starting material was hESCs (HUES9 cells) that were induced to pancreatic lineage using a slightly modified version of previously published protocols (D'Amour et al., 2006; Jiang et al., 2007), as described in Example 1. After 9 days of stepwise differentiation, a heterogeneous population of cells was generated containing cells that stained strongly, weakly or not at all with a Pdx1 antibody. Any cell that stained with the Pdx1 staining antibody was counted as Pdx1^+ cells regardless of staining intensity. Together, the Pdx1^+ cells comprises 5.1±1.8% of the total cell number.
To carry out the screen, the cells were trypsinized and plated on 804G-coated 384-well plates at 6000 cells/well using chemically defined media (DMEM supplemented with 2 mM L-Glu, 1×PS, 1×B27). After overnight incubation, compounds were screened by adding them to provide a final concentration of 10 μM, 1 μM and 0.1 μM. Four days later, the cells were stained with Pdx1 antibody and the plates were analyzed with Opera high content screening system (PerkinElmer).
The wells in which the percentage of Pdx1^+ cells is higher than present at day 1 and higher than day 5 treated with DMSO were selected as primary hits. Compounds that increase both the number and percentage of Pdx1^+ cells were picked as primary hits. Eleven compounds produced hits. (FIG. 7, Table I in FIG. 9 and formulas in FIG. 10). These eleven compounds were (−)-Indolactam V (FIG. 1c and Compound I in Table 1) boldine (Compound II), rotenone (Compound III), ethopropazine hydrochloride (Compound IV), cedrelone (Compound V), prieurianin (Compound VI), strophanthidin (Compound VII), trimeprazine tartrate (Compound VIII), terconazole (Compound IX), dimethisoquin hydrochloride (Compound X), harmine hydrochloride (Compound XI).
(§2) Cells were fixed with 10% formalin solution (Sigma) for 20 min at room temperature. Immunostaining was carried out with standard protocols. The following primary antibodies were used: goat anti-Pdx1 (1:500; R&D system); rabbit anti-FOXA2 (1:500; Upstate); rabbit anti-HNF6 (1:200; Santa Cruz Biotech); guinea pig anti-insulin (1:1000; Dako); rabbit anti-c-peptide (1:500; Linco); rabbit anti-amylase (1:200, Sigma); goat anti-HNF1β (1:100, Santa Cruz Biotech); and biotinylated DBA (1:400; Vector Lab). Alexa-488-, Alexa-555, and Alexa-647-conjugated donkey antibodies against mouse, rabbit, guinea pig and goat, and Pacific Blue conjugate-streptavidin (Invitrogen) were used at 1:300 dilution.

[3] = tested on: HUES8-derived population (Pdx1+ cells); experiment: Pdx1 antibody staining of treated HUES8-derived population; conditions: HUES8-derived population, 4 days; 300 nM ILV and/or 50 ng/ml FGF10
Procedure: as §1, §2
To determine whether PKC signaling is being activated in HUES-derived cells, HUES8-derived definitive endoderm population was treated with two PKC agonists, TPB ((2S,5S)-(E,E)-8-(5-(4-(trifluoromethyl)phenyl)-2,4-pentadienoylamino)benzolactam) and PMA (phorbol-12-myristate-13-acetate), in the absence of ILV. […] Furthermore, HUES8-derived population was treated with two PKC antagonists, BISI (Bisindolylmaleimide I) and Gö 6983, in the presence of ILV.
Experiments were performed to monitor downstream signaling by PKC. Since ERK signaling has been reported to be regulated by PKC (Ueda et al., 1996), the activity of ERK signaling was examined with Western blotting to detect the phosphorylation of ERK1/2 at Thr-202/Tyr-204.

HUES8-derived population = experiment: Ki67 staining for proliferation of Pdx1+ cells; conditions: 300 nM ILV, 4 days
Procedure: as §2
The results provided above are consistent with (1) ILV promotion of the proliferation or replication of the few pancreatic progenitors present in the starting population and with (2) differentiation induction of definitive endoderm by the compound. To distinguish between these possibilities, a HUES8-derived population was treated with 300 nM ILV for 4 days and analyzed for proliferation by staining with the antibody against Ki67 (marker for proliferating cells).

(−)-Indolactam V [ILV]
Pdx1+ cells [1]: 21.5±2.4%
primary hits (increase both the number and percentage of Pdx1+ cells) ([2]; HUES9-derived cells, 10 μM, 1 μM and 0.1 μM, four days): hits
effective concentration ([2]; HUES9-derived cells, primary screen): ~1 µM
percentage of Pdx1+ cells ([2]; HUES9-derived population, 1 μM ILV for 4 days (day 5)): 10.9±0.9%
percentage of cells stained by Pdx1 antibody [3]: 26.9±2.8%
Pdx1+ cells expressing Ki67 (HUES8-derived population): no Pdx1^+ cells expressing Ki67
